Marks after values point to notes of the source that are not given here.
How the values were obtained:
human μ receptor = target: T1, human μ receptor (Homo sapiens, UniProt P35372); assay: μ Receptor binding test ([3H] diprenorphine displacement); conditions: Ki for μ receptor divided by Ki for nociceptin receptor
T1 construct: purchased Receptor Biology
Method: A human μ receptor-expressing cell membrane preparation (Receptor Biology) was adjusted at the membrane protein level of 8.5 μg/mL in a Tris buffer [50 mM Tris-HCl (pH 7.8), 5 mM MgCl2, 1 mM EGTA, 0.1% BSA]. To this suspension, [^3H] diprenorphine (diluted to the final concentration of 0.13 nM in the Tris buffer) and a test substance were added, and the mixture was incubated at 25° C. for 90 minutes. Using a cell harvester and a washing solution [50 mM Tris-HCl (pH 7.8), 4° C.], the membrane was recovered onto the GF/B filter which had been pretreated with 0.3% PEI, and washed further 4 times. The filter was transferred into a vial, to which a scintillator was added, and then the radioactivity was measured using a liquid scintillation counter. A non-specific binding was regarded as a binding in the presence of 100 μM naloxone, and the difference between the total binding and the non-specific binding was regarded as the specific binding. Based on the % binding inhibition in the presence of a test substance, the IC50 was obtained and employed together with the Kd value of the [^3H] diprenorphine to calculate the Ki value of the test substance (mol/L; hereinafter referred to as M value). The M value was divided by the N value obtained in Test Example 1 to judge the selectivity of the receptor binding of the test substance.

Male mice (ddY) = assay: Mouse formalin test; assay type: in vivo
Method: Male mice (ddY; 4 to 5 weeks old) were kept at a room temperature of 21 to 25° C. and a humidity of 45 to 65% in a cage having a 12-hour light/12-hour dark cycle while being fed with feed and water ad libitum, whereby being acclimatized for a period of 1 week or longer. 6 Animals in each group were employed.
The compound of Example 1 was dissolved in physiological saline. Each mouse was placed in a cylindrical tube whose diameter was about 4 cm, immobilized at its tail, and a 27G needle connected to a 1 mL syringe was inserted into its tail vein, via which 0.1 mL/10 g body weight of the drug solution was administered rapidly. In a control group, physiological saline was administered. After administration, an absorbent cotton was used for hemostasis, and the animal was returned to the observation cage. The dose of the compound of Example 1 was 1 mg or 3 mg per 1 kg body weight of each mouse.
Subsequently, each mouse was acclimatized sufficiently to the observation cage, and then placed in a retainer for the drug administration. 20 μL of a 1% formalin solution was subcutaneously administered into the plantar region of the hindpaw, and the mouse was returned to the observation cage, and examined for the duration of any aversive behavior such as licking or biting the administered hindpaw extremity over a period of 30 minutes using a stopwatch.

T1 sequence (P35372 whole entry): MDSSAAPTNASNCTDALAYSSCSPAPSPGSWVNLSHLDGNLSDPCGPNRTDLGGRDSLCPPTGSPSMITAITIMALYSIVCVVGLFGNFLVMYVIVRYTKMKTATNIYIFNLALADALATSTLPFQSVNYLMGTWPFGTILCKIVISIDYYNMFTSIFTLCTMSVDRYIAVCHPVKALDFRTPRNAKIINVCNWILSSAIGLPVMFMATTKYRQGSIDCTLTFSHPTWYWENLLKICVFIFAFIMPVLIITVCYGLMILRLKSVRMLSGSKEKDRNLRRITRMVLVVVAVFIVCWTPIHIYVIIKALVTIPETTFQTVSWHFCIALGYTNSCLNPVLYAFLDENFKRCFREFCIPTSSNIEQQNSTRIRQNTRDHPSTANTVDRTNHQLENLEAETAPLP

Row | SMILES | Selectivity (M value/N value) (human μ receptor) | Duration of aversive behavior (Male mice (ddY); 1 mg/kg via tail vein, 0 to 10 min after formalin administration, control 128.3) | Duration of aversive behavior (Male mice (ddY); 1 mg/kg via tail vein, 10 to 30 min after formalin administration, control 261.0) | Duration of aversive behavior (Male mice (ddY); 3 mg/kg via tail vein, 0 to 10 min after formalin administration, control 128.3) | Duration of aversive behavior (Male mice (ddY); 3 mg/kg via tail vein, 10 to 30 min after formalin administration, control 261.0)
1 | N=C(N)NCCCCCCN[C@@H](Cc1ccc(O)cc1)C(=O)N[C@@H](Cc1ccc(O)cc1)C(=O)N[C@@H](CCCNC(=N)N)C(=O)N[C@@H](Cc1c[nH]c2ccccc12)C(N)=O [Example 1, N-α-6-Guanidinohexyl-L-tyrosyl-L-tyrosyl-L-arginyl-L-tryptophanamide] | 93 | 80.8** sec | 163.8 s | 41.00** sec | 112.8** sec
2 | Cc1cc(C[C@H](NCCCCCCNC(=N)N)C(=O)N[C@@H](Cc2ccc(O)cc2)C(=O)N[C@@H](CCCNC(=N)N)C(=O)N[C@H](C)c2ccc3ccccc3c2)cc(C)c1O [Example 25, N-α-6-Guanidinohexyl-3,5-dimethyl-L-tyrosyl-L-tyrosyl-N-[(R)-1-(2-naphthyl)ethyl]-L-argininamide] | 15 | – | – | – | –
3 | Cc1cc(C[C@H](NCCCCCCNC(=N)N)C(=O)N[C@@H](Cc2cc(C)c(O)c(C)c2)C(=O)N[C@@H](CCCNC(=N)N)C(=O)N[C@H](C)c2ccc3ccccc3c2)cc(C)c1O [Example 27, N-α-6-Guanidinohexyl-3,5-dimethyl-L-tyrosyl-3,5-dimethyl-L-tyrosyl-N-[(R)-1-(2-naphthyl)ethyl]-L-argininamide] | 17 | – | – | – | –
